The source of these data is patent US20260200947A1, “FUSED CYCLIC COMPOUNDS AND USE THEREOF” (Jacobio Pharmaceuticals Co., Ltd., priority 2022, published 2026).

T4 sequence (P01116 1-169 isoform P01116-2 G12V): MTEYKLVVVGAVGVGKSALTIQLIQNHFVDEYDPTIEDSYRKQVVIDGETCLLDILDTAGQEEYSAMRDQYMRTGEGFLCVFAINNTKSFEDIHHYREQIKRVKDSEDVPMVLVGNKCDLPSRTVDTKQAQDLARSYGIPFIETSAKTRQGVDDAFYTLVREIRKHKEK

The test system of the first data set is SW620 cells (K-Ras G12V).
Experiment: not given
Conditions: not given
What is called IC50 is the concentration at which inhibition is half-maximal. `N#Cc1c(N)sc2c(F)ccc(-c3c(Cl)c4c5c(nc(OCC67CCCN6CC(F)C7)nc5c3F)N3CCCOCC3CO4)c12` (single isomer, unassigned) [Compound 66B]: inhibition was half-maximal at 2.22 nM (IC50).

Compound `C#Cc1c(F)ccc2cc(N)cc(-c3nc4c5c(nc(OCC67CCCN6CC(F)C7)nc5c3F)N3C(C(F)F)CCOCC3N4C)c12` (stereo not drawn) [Compound 52B] gave an IC50 of 29.5 nM.

`C#Cc1c(F)ccc2cc(N)cc(-c3nc4c5c(nc(OCC67CC(=C)CN6CC(OC)C7)nc5c3F)N3CCCOCC3N4C)c12` (stereo not drawn) [Compound 169] had an IC50 of 15.2 nM.

Tested on in a further data set: not listed separately
Kind of data set: Mouse pharmacokinetic study. The format is in vivo. The conditions noted are these: Balb/c mouse (female), 3 mg/kg, iv, plasma. The method, then:
The purpose of this study was to evaluate the pharmacokinetic properties of compounds in Balb/c mouse (female) following single dose administration. Six mice were needed for each compound and the six mice were divided into two groups (n=3/group), group A and group B. Mice in group A were treated with a single 3 mg/kg dose of compound (iv). Mice in group B were treated with a single 10 mg/kg dose of compound (po). Foreach mouse in group A, blood samples were collected at the time point of 0.083 h 0.5 h, 1 h, 2 h, 4 h, 8 h and 24 h post-dose. For each mouse in group B, blood samples were collected at the time point of 0.25 h, 0.5 h, 1 h, 2 h, 4 h, 8 h and 24 h post-dose. Blood samples were placed on ice until centrifugation to obtain plasma samples. The plasma samples were stored at −80° C. until analysis. The concentration of compound in plasma samples was determined using a LC-MS/MS method.
`N#Cc1c(N)sc2c(F)ccc(-c3c(Cl)c4c5c(nc(OCC67CCCN6CC(F)C7)nc5c3F)N3CCCOCC3CO4)c12` (single isomer, unassigned) [Compound 66B] had an AUC0-24 h of 8951 ng·h/mL and a Cl_obs of 5.77 mL/min/kg.

Still in this data set, the particulars now being: Balb/c mouse (female), 10 mg/kg po vs 3 mg/kg iv.
With `N#Cc1c(N)sc2c(F)ccc(-c3c(Cl)c4c5c(nc(OCC67CCCN6CC(F)C7)nc5c3F)N3CCCOCC3CO4)c12` (single isomer, unassigned) [Compound 66B], the F came to 10.8%.

Staying with this data set, now noted: Balb/c mouse (female), 10 mg/kg, po, plasma.
The Cmax is the peak of the concentration-time curve. As for `N#Cc1c(N)sc2c(F)ccc(-c3c(Cl)c4c5c(nc(OCC67CCCN6CC(F)C7)nc5c3F)N3CCCOCC3CO4)c12` (single isomer, unassigned) [Compound 66B], the AUC0-24 h was found to be 3217 ng·h/mL and the maximum concentration (Cmax) came out at 1175 ng/mL.

The target of the next data set is T1, GDP-KRAS G12V (Homo sapiens, UniProt P01116, G12V). In words: SOS1 catalyzed nucleotide exchange assay, GDP-KRAS G12V. The conditions noted are these: read-out: Biochemical assays, IC50, KRAS G12V GDP, GDP form K-Ras G12V, TR-FRET. (In general: Time-resolved FRET reads energy transfer from a long-lived donor to a nearby acceptor.)
T1 sequence (P01116 1-169 isoform P01116-2 G12V): as above
Turning to `N#Cc1c(N)sc2c(F)ccc(-c3c(Cl)c4c5c(nc(OCC67CCCN6CC(F)C7)nc5c3F)N3CCCOCC3CO4)c12` (single isomer, unassigned) [Compound 66B], the IC50 was 0.924 nM.

Consider `C#Cc1c(F)ccc2cc(N)cc(-c3nc4c5c(nc(OCC67CCCN6CC(F)C7)nc5c3F)N3C(C(F)F)CCOCC3N4C)c12` (stereo not drawn) [Compound 52B], for which the half-inhibitory concentration (IC50) amounted to 1.97 nM.

Regarding `C#Cc1c(F)ccc2cc(N)cc(-c3nc4c5c(nc(OCC67CC(=C)CN6CC(OC)C7)nc5c3F)N3CCCOCC3N4C)c12` (stereo not drawn) [Compound 169], the IC50 turned out to be 3.33 nM.

The subject of another data set is AsPC-1 cells (K-Ras G12D).
Experiment: not given
Conditions: not given
For the compound `N#Cc1c(N)sc2c(F)ccc(-c3c(Cl)c4c5c(nc(OCC67CCCN6CC(F)C7)nc5c3F)N3CCCOCC3CO4)c12` (single isomer, unassigned) [Compound 66B], the IC50 turned out to be 5.91 nM.

`C#Cc1c(F)ccc2cc(N)cc(-c3nc4c5c(nc(OCC67CCCN6CC(F)C7)nc5c3F)N3C(C(F)F)CCOCC3N4C)c12` (stereo not drawn) [Compound 52B] yielded a concentration for half-maximal inhibition (IC50) of 111 nM.

`C#Cc1c(F)ccc2cc(N)cc(-c3nc4c5c(nc(OCC67CC(=C)CN6CC(OC)C7)nc5c3F)N3CCCOCC3N4C)c12` (stereo not drawn) [Compound 169] showed an IC50 of 93.6 nM.

In another data set the target is T2, GDP-KRAS G12D (Homo sapiens, UniProt P01116, G12D). In words: SOS1 catalyzed nucleotide exchange assay, GDP-KRAS G12D. The conditions noted are these: read-out: Biochemical assays, IC50, KRAS G12D GDP, GDP form K-Ras G12D, TR-FRET.
T2 sequence (P01116 1-169 isoform P01116-2 G12D): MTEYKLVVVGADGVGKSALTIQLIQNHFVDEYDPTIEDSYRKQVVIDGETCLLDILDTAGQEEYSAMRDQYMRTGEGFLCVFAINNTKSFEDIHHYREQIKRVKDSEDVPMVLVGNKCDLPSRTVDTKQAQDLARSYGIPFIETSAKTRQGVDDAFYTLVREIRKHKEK
Take `N#Cc1c(N)sc2c(F)ccc(-c3c(Cl)c4c5c(nc(OCC67CCCN6CC(F)C7)nc5c3F)N3CCCOCC3CO4)c12` (single isomer, unassigned) [Compound 66B]: the IC50 came out at 0.983 nM.

For the compound `C#Cc1c(F)ccc2cc(N)cc(-c3nc4c5c(nc(OCC67CCCN6CC(F)C7)nc5c3F)N3C(C(F)F)CCOCC3N4C)c12` (stereo not drawn) [Compound 52B], the IC50 is 3.25 nM.

Consider `C#Cc1c(F)ccc2cc(N)cc(-c3nc4c5c(nc(OCC67CC(=C)CN6CC(OC)C7)nc5c3F)N3CCCOCC3N4C)c12` (stereo not drawn) [Compound 169], for which the half-inhibitory concentration (IC50) turned out to be 1.67 nM.

A further data set deals with T1, GDP-KRAS G12V. In words: biochemical.
Conditions: not given
Compound `C#Cc1c(F)ccc2cc(N)cc(-c3nc4c5c(nc(OC[C@@]67CCCN6C[C@H](F)C7)nc5c3F)N3CCCOCC3N4CCC(F)(F)F)c12` (stereo partly drawn) [Compound 104] showed an IC50 of 17.6 nM.

Another data set concerns AGS cells (K-Ras G12D).
Experiment: not given
Conditions: not given
`C#Cc1c(F)ccc2cc(N)cc(-c3nc4c5c(nc(OC[C@@]67CCCN6C[C@H](F)C7)nc5c3F)N3[C@H]5COC[C@H]5COC[C@H]3N4C)c12` [Compound 123D] gave a half-maximal inhibitory concentration (IC50) of 2.18 nM.

As to `C#Cc1c(F)ccc2cc(N)cc(-c3nc4c5c(nc(OC[C@@]67CCCN6C[C@H](F)C7)nc5c3F)N3CCCOCC3N4CCC(F)(F)F)c12` (stereo partly drawn) [Compound 104], the 50% inhibitory concentration (IC50) worked out at 485 nM.

The target of another data set is T2, GDP-KRAS G12D. In words: biochemical.
Conditions: not given
Turning to `C#Cc1c(F)ccc2cc(N)cc(-c3nc4c5c(nc(OC[C@@]67CCCN6C[C@H](F)C7)nc5c3F)N3CCCOCC3N4CCC(F)(F)F)c12` (stereo partly drawn) [Compound 104], the IC50 turned out to be 9.19 nM.

The target of the next data set is T3, GppNp-KRAS G12D (Homo sapiens, UniProt P01116, G12D). Kind of data set: biochemical.
T3 sequence (P01116 1-169 isoform P01116-2 G12D): as above
Conditions: not given
With `C#Cc1c(F)ccc2cc(N)cc(-c3nc4c5c(nc(OC[C@@]67CCCN6C[C@H](F)C7)nc5c3F)N3CCCOCC3N4CCC(F)(F)F)c12` (stereo partly drawn) [Compound 104], the 50% inhibitory concentration (IC50) is greater than 1000 nM.

A further data set has as its target T4, GppNp-KRAS G12V (Homo sapiens, UniProt P01116, G12V). In words: GTP-K-Ras and cRAF interaction assay, GppNp-KRAS G12V. The conditions noted are these: read-out: Biochemical assays, IC50, KRAS G12V GppNp; GppNp-loaded K-Ras G12V, cRAF RBD interaction, HTRF.
As for `N#Cc1c(N)sc2c(F)ccc(-c3c(Cl)c4c5c(nc(OCC67CCCN6CC(F)C7)nc5c3F)N3CCCOCC3CO4)c12` (single isomer, unassigned) [Compound 66B], the half-maximal inhibitory concentration (IC50) stood at 8.62 nM.

As to `C#Cc1c(F)ccc2cc(N)cc(-c3nc4c5c(nc(OCC67CCCN6CC(F)C7)nc5c3F)N3C(C(F)F)CCOCC3N4C)c12` (stereo not drawn) [Compound 52B], the IC50 is 622 nM.

For `C#Cc1c(F)ccc2cc(N)cc(-c3nc4c5c(nc(OCC67CC(=C)CN6CC(OC)C7)nc5c3F)N3CCCOCC3N4C)c12` (stereo not drawn) [Compound 169], the IC50 is 245 nM.

The target of another data set is T3, GppNp-KRAS G12D. In words: GTP-K-Ras and cRAF interaction assay, GppNp-KRAS G12D. The conditions noted are these: read-out: Biochemical assays, IC50, KRAS G12D GppNp; GppNp-loaded K-Ras G12D, cRAF RBD interaction, HTRF.
Consider `N#Cc1c(N)sc2c(F)ccc(-c3c(Cl)c4c5c(nc(OCC67CCCN6CC(F)C7)nc5c3F)N3CCCOCC3CO4)c12` (single isomer, unassigned) [Compound 66B], for which the half-inhibitory concentration (IC50) was 4.06 nM.

With `C#Cc1c(F)ccc2cc(N)cc(-c3nc4c5c(nc(OCC67CCCN6CC(F)C7)nc5c3F)N3C(C(F)F)CCOCC3N4C)c12` (stereo not drawn) [Compound 52B], the IC50 was 302 nM.

As for `C#Cc1c(F)ccc2cc(N)cc(-c3nc4c5c(nc(OCC67CC(=C)CN6CC(OC)C7)nc5c3F)N3CCCOCC3N4C)c12` (stereo not drawn) [Compound 169], the IC50 is 164 nM.

The next data set concerns the target T4, GppNp-KRAS G12V. Kind of data set: biochemical.
Conditions: not given
The compound `C#Cc1c(F)ccc2cc(N)cc(-c3nc4c5c(nc(OC[C@@]67CCCN6C[C@H](F)C7)nc5c3F)N3CCCOCC3N4CCC(F)(F)F)c12` (stereo partly drawn) [Compound 104] displayed an IC50 greater than 1000 nM.

The next data set has as its system Capan-2 cells (K-Ras G12V).
Experiment: not given
Conditions: not given
In turn, `N#Cc1c(N)sc2c(F)ccc(-c3c(Cl)c4c5c(nc(OCC67CCCN6CC(F)C7)nc5c3F)N3CCCOCC3CO4)c12` (single isomer, unassigned) [Compound 66B] registered an IC50 of 1.94 nM.

The compound `C#Cc1c(F)ccc2cc(N)cc(-c3nc4c5c(nc(OC[C@@]67CCCN6C[C@H](F)C7)nc5c3F)N3[C@H]5COC[C@H]5COC[C@H]3N4C)c12` [Compound 123D] yielded an IC50 of 2.07 nM.

With `C#Cc1c(F)ccc2cc(N)cc(-c3nc4c5c(nc(OCC67CCCN6CC(F)C7)nc5c3F)N3C(C(F)F)CCOCC3N4C)c12` (stereo not drawn) [Compound 52B], the 50% inhibitory concentration (IC50) amounted to 2.01 nM.

For the compound `C#Cc1c(F)ccc2cc(N)cc(-c3nc4c5c(nc(OCC67CC(=C)CN6CC(OC)C7)nc5c3F)N3CCCOCC3N4C)c12` (stereo not drawn) [Compound 169], the IC50 worked out at 0.778 nM.
